Reference: patent publication US10351547B2, “Somatostatin modulators and uses thereof” (priority 2016, dated 2019)

The compounds below were run against human SSTR2 (Homo sapiens (Human), UniProt P30874) (assay: Human SSTR2 intracellular cAMP functional assay for agonists (HTRF)). Settings: not given.
human SSTR2, sequence (P30874 whole entry): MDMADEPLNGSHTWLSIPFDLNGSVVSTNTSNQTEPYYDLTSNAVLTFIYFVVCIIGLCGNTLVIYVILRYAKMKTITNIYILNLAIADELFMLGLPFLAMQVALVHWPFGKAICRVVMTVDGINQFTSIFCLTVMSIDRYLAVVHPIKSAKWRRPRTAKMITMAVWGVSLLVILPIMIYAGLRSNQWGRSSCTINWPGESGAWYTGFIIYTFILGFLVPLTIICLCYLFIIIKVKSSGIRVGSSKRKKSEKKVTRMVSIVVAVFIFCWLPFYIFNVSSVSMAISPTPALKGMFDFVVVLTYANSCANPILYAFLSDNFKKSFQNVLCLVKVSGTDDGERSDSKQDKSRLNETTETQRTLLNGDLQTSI
Assay type: cell-based
Method in brief: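 Cells bearing human SSTR2 exposed to compound for 20 minutes at 37 °C; after lysis, cAMP measured by time-resolved fluorescence (HTRF) and converted via a standard curve. EC50 calculated from cAMP versus compound concentration.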
Compound `CONC(=O)Nc1nc(C)ccc1-c1ccc2ncc(-c3cc(C)cc(F)c3)c(N3CCC(N)CC3)c2c1` [2-239, 1-{3-[4-(4-aminopiperidin-1-yl)-3-(3-fluoro-5-methylphenyl)quinolin-6-yl]-6-methylpyridin-2-yl}-3-methoxyurea] has an EC50 of 10 to 100 nM. With `CONC(=O)Nc1ccc(-c2ccc3ncc(-c4cc(C)cc(F)c4)c(N4CCC(N)CC4)c3c2)cc1` [2-240, 1-{4-[4-(4-aminopiperidin-1-yl)-3-(3-fluoro-5-methylphenyl)quinolin-6-yl]phenyl}-3-methoxyurea] the EC50 was 10 to 100 nM.

Same assay, conditions: CHO-K1 cells stably expressing human SSTR2; NKH477-stimulated cAMP; read-out: EC50 (inhibition of cAMP activities via human SST2R)
For `CONC(=O)Nc1ccc(C#N)cc1-c1ccc2ncc(-c3cc(C)cc(F)c3)c(N3CCC(N)CC3)c2c1` [2-222], the EC50 was < 10 nM. In the case of `CONC(=O)Nc1cc(F)cc(-c2ccc3ncc(-c4cc(C)cc(F)c4)c(N4CCC(N)CC4)c3c2)c1` [2-223, 1-{3-[4-(4-aminopiperidin-1-yl)-3-(3-fluoro-5-methylphenyl)quinolin-6-yl]-5-fluorophenyl}-3-methoxyurea], the EC50 is reported as < 10 nM. For `CONC(=O)Nc1ncccc1-c1ccc2ncc(-c3cc(C)cc(F)c3)c(N3CCC(N)CC3)c2c1` [2-226, 1-{3-[4-(4-aminopiperidin-1-yl)-3-(3-fluoro-5-methylphenyl)quinolin-6-yl]pyridin-2-yl}-3-methoxyurea], the EC50 was < 10 nM. In the case of `CCONC(=O)Nc1c(F)cc(F)cc1-c1ccc2ncc(-c3cc(C)cc(F)c3)c(N3CCC(N)CC3)c2c1` [2-228, 1-{2-[4-(4-aminopiperidin-1-yl)-3-(3-fluoro-5-methylphenyl)quinolin-6-yl]-4,6-difluorophenyl}-3-ethoxyurea], the EC50 is reported as < 10 nM. For `COCCNc1nn(C)cc1-c1ccc2ncc(-c3cc(C)cc(F)c3)c(N3CCC(N)CC3)c2c1` [2-229, 1-[3-(3-fluoro-5-methylphenyl)-6-{3-[(2-methoxyethyl)amino]-1-methyl-1H-pyrazol-4-yl}quinolin-4-yl]piperidin-4-amine], the EC50 was < 10 nM. In the case of `COCC(=O)Nc1c(F)cc(F)cc1-c1ccc2ncc(-c3cc(C)cc(F)c3)c(N3CCC(N)CC3)c2c1` [2-230, N-{2-[4-(4-aminopiperidin-1-yl)-3-(3-fluoro-5-methylphenyl)quinolin-6-yl]-4,6-difluorophenyl}-2-methoxyacetamide], the EC50 is reported as < 10 nM. In the case of `N#CCOc1c(C#N)cccc1-c1ccc2ncc(-c3cc(F)cc(F)c3)c(N3CCC(N)CC3)c2c1` [2-231, 3-[4-(4-aminopiperidin-1-yl)-3-(3,5-difluorophenyl)quinolin-6-yl]-2-(cyanomethoxy)benzonitrile], the EC50 is reported as < 10 nM. In the case of `Cc1cc(F)cc(-c2cnc3ccc(-c4cc(F)cc(F)c4NC(=O)NOCC(F)(F)F)cc3c2N2CCC(N)CC2)c1` [2-233, 1-{2-[4-(4-aminopiperidin-1-yl)-3-(3-fluoro-5-methylphenyl)quinolin-6-yl]-4,6-difluorophenyl}-3-(2,2,2-trifluoroethoxy)urea], the EC50 is reported as < 10 nM. In the case of `COCCNc1ncc(F)cc1-c1ccc2ncc(-c3cc(C)cc(F)c3)c(N3CCC(N)CC3)c2c1` [2-234, 3-[4-(4-aminopiperidin-1-yl)-3-(3-fluoro-5-methylphenyl)quinolin-6-yl]-5-fluoro-N-(2-methoxyethyl)pyridin-2-amine], the EC50 is reported as < 10 nM. For `CONC(=O)Nc1c(F)cc(C#N)cc1-c1ccc2ncc(-c3cc(C)cc(F)c3)c(N3CCC(N)CC3)c2c1` [2-237, 1-{2-[4-(4-aminopiperidin-1-yl)-3-(3-fluoro-5-methylphenyl)quinolin-6-yl]-4-cyano-6-fluorophenyl}-3-methoxyurea], the EC50 was < 10 nM. For `N#Cc1ccc(NC(=O)NOCC(F)(F)F)c(-c2ccc3ncc(-c4cc(F)cc(F)c4)c(N4CCC(N)CC4)c3c2)c1` [2-238, 1-{2-[4-(4-aminopiperidin-1-yl)-3-(3,5-difluorophenyl)quinolin-6-yl]-4-cyanophenyl}-3-(2,2,2-trifluoroethoxy)urea], the EC50 was < 10 nM. `NC1CCN(c2c(-c3cc(F)cc(F)c3)cnc3ccc(-c4c(O)c(Br)cc(F)c4F)cc23)CC1` [2-241, 2-[4-(4-aminopiperidin-1-yl)-3-(3,5-difluorophenyl)quinolin-6-yl]-6-bromo-3,4-difluorophenol] was tested, and the EC50 was < 10 nM. With `COCCNc1ncc(C#N)cc1-c1ccc2ncc(-c3cc(C)cc(F)c3)c(N3CCC(N)CC3)c2c1` [2-242, 5-[4-(4-aminopiperidin-1-yl)-3-(3-fluoro-5-methylphenyl)quinolin-6-yl]-6-[(2-methoxyethyl)amino]pyridine-3-carbonitrile] the EC50 was < 10 nM. For `Oc1ncccc1-c1ccc2ncc(-c3cc(F)cc(F)c3)c(N3CC[C@H]4NCCO[C@@H]4C3)c2c1` [2-248, 3-{4-[trans-octahydro-1H-pyrido[3,4-b]morpholin-6-yl]-3-(3,5-difluorophenyl)quinolin-6-yl}pyridin-2-ol], the EC50 was < 10 nM. `Cc1ccnc(-c2ccc3ncc(-c4cc(F)cc(F)c4)c(N4CCC(N)CC4)c3c2)c1N` [2-250, 2-[4-(4-aminopiperidin-1-yl)-3-(3,5-difluorophenyl)quinolin-6-yl]-4-methylpyridin-3-amine] was tested, and the EC50 was < 10 nM. Work on `N#Cc1cncc(-c2ccc3ncc(-c4cc(F)cc(F)c4)c(N4CC[C@H]5NCCO[C@@H]5C4)c3c2)c1O` [2-254, 5-{4-[trans-octahydro-1H-pyrido[3,4-b]morpholin-6-yl]-3-(3,5-difluorophenyl)quinolin-6-yl}-4-hydroxypyridine-3-carbonitrile] yielded an EC50 of 10 to 100 nM. `Cc1ccnc(-c2ccc3ncc(-c4cc(F)cc(F)c4)c(N4CC[C@H]5NCCO[C@@H]5C4)c3c2)c1O` [2-258, 2-{4-[trans-octahydro-1H-pyrido[3,4-b]morpholin-6-yl]-3-(3,5-difluorophenyl)quinolin-6-yl}-4-methylpyridin-3-ol] was tested, and the EC50 was < 10 nM. For `Cc1cc(F)cc(-c2cnc3ccc(-c4nccc(C#N)c4N)cc3c2N2CC(C3COCCN3)C2)c1` (stereo not shown) [2-282, 3-amino-2-[3-(3-fluoro-5-methylphenyl)-4-[3-(morpholin-3-yl)azetidin-1-yl]quinolin-6-yl]pyridine-4-carbonitrile], the EC50 was < 10 nM. For `Cc1cc(F)cc(-c2cnc3ccc(-c4cc(F)cc(C(N)=O)c4)nc3c2N2CCC(N)CC2)c1` [3-1, 3-[8-(4-aminopiperidin-1-yl)-7-(3-fluoro-5-methylphenyl)-1,5-naphthyridin-2-yl]-5-fluorobenzamide], the EC50 was < 10 nM. With `Cc1cc(F)cc(-c2cnc3ccc(-c4cc(F)cc5[nH]c(=O)[nH]c45)nc3c2N2CCC(N)CC2)c1` [3-3, 4-[8-(4-aminopiperidin-1-yl)-7-(3-fluoro-5-methylphenyl)-1,5-naphthyridin-2-yl]-6-fluoro-2,3-dihydro-1H-1,3-benzodiazol-2-one] the EC50 was < 10 nM. In the case of `Cc1cc(F)cc(-c2cnc3ccc(-c4ccc5[nH]c(=O)[nH]c5c4)nc3c2N2CCC(N)CC2)c1` [3-4, 5-[8-(4-aminopiperidin-1-yl)-7-(3-fluoro-5-methylphenyl)-1,5-naphthyridin-2-yl]-2,3-dihydro-1H-1,3-benzodiazol-2-one], the EC50 is reported as < 10 nM. With `Cc1cc(F)cc(-c2cnc3ccc(-c4cc(F)c5[nH]c(=O)[nH]c5c4)nc3c2N2CCC(N)CC2)c1` [3-5, 6-[8-(4-aminopiperidin-1-yl)-7-(3-fluoro-5-methylphenyl)-1,5-naphthyridin-2-yl]-4-fluoro-2,3-dihydro-1H-1,3-benzodiazol-2-one] the EC50 was < 10 nM. With `NC1CCN(c2c(-c3cc(F)cc(F)c3)cnc3ccc(-c4cc(F)c5[nH]c(=O)[nH]c5c4)nc23)CC1` [3-9, 6-[8-(4-aminopiperidin-1-yl)-7-(3,5-difluorophenyl)-1,5-naphthyridin-2-yl]-4-fluoro-2,3-dihydro-1H-1,3-benzodiazol-2-one] the EC50 was < 10 nM.
